Consider 2 compounds from article doi:10.1101/2025.01.28.635346v1 (bioRxiv, 2025).

Bridge positions count the residues as written; N and C are the ends. Side chains are listed from the residue outwards. Peptide text beside a SMILES is read from it. * marks the point of attachment. Butanoyl(4-(4-I-phenyl)) = O=C(CCCc1ccc(I)cc1)*; PEG2 = NCCOCCOCCC(=O)O

One assay concerns the target T1, CHRM2 (Homo sapiens, UniProt P08172).
T1 sequence (P08172 1-466): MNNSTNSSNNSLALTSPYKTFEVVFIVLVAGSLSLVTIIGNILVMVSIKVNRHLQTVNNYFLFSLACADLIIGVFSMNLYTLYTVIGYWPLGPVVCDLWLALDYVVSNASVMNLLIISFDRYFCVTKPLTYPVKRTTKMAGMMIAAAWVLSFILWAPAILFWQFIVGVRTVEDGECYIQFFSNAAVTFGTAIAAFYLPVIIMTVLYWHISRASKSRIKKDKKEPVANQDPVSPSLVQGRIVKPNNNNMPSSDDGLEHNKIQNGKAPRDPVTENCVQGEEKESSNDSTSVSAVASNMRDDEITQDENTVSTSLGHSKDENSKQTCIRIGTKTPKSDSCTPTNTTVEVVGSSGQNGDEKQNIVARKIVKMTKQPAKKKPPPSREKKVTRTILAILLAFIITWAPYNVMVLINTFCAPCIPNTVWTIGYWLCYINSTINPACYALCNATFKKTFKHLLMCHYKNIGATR
The experiment in a line: Safetyscan47 GPCR cAMP, Agonist. In kind it is cell-based. As to conditions: for Emax: read-out: Max Response.

In a further assay the target is DRD2S (Homo sapiens, UniProt P14416). In words: Safetyscan47 GPCR cAMP, Antagonist. In kind it is cell-based. As to conditions: for Emax: read-out: Max Response.
Chain of DRD2S (P14416 1-414 isoform P14416-2): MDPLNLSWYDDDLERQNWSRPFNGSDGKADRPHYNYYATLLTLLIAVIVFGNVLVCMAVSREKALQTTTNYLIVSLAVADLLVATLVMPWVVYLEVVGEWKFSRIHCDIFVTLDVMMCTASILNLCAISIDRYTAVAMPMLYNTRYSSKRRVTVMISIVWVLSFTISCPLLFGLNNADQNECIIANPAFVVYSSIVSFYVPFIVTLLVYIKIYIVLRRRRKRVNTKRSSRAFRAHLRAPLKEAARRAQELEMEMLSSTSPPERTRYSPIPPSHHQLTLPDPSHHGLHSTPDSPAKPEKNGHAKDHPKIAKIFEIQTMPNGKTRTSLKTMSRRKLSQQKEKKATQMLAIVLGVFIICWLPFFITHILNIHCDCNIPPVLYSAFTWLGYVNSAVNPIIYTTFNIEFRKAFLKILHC
Another assay has as its target T2, integrin αIIbβ3 (Homo sapiens, UniProt P05106+P08514).
T2 sequence (P08514 32-993 limits assumed): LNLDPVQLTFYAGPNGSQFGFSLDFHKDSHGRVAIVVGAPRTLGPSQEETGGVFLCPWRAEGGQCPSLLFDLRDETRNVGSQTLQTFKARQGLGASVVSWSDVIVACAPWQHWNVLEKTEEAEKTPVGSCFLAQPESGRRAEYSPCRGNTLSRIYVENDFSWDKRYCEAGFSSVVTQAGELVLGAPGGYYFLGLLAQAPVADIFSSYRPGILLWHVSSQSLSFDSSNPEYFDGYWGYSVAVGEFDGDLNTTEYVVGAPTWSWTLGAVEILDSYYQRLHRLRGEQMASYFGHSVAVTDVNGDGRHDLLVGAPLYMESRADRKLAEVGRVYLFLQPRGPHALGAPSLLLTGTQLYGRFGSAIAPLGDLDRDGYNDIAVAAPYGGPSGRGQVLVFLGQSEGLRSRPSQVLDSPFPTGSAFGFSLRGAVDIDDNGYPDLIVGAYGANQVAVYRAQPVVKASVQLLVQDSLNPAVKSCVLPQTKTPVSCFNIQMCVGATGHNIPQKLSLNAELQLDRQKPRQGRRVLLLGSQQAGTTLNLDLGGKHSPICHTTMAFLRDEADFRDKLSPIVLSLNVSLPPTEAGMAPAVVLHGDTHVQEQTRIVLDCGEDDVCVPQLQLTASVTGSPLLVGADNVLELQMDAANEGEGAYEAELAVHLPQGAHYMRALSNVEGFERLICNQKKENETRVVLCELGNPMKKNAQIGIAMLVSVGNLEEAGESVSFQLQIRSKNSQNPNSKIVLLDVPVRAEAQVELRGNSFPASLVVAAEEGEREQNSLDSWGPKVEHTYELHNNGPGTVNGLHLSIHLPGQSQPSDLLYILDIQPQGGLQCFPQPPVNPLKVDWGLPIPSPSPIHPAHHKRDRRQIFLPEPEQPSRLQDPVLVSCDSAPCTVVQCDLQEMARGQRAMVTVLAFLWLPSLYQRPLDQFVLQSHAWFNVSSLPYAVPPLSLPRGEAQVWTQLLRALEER
T2 sequence (P05106 27-718 limits assumed): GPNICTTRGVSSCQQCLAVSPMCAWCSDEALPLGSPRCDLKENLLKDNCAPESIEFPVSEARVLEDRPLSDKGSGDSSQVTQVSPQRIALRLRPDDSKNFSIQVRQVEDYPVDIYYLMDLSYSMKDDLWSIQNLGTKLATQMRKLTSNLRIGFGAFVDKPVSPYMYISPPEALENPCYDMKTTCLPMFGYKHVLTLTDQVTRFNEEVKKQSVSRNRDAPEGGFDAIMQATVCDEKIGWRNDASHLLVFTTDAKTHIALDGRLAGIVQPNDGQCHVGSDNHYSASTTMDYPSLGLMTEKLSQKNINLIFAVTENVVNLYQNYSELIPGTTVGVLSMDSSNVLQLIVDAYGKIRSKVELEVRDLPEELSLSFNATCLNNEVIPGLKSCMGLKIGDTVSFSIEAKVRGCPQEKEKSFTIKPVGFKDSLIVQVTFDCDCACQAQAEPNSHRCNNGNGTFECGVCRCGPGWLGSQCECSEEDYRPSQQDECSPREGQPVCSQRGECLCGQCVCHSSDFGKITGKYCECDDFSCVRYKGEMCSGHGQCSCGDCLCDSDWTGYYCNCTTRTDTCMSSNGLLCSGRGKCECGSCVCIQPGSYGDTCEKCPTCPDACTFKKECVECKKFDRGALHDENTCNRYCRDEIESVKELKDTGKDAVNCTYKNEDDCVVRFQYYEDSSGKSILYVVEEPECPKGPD
The experiment in a line: ELISA competition assay, integrin αIIbβ3. In kind it is binding. For orientation: In an ELISA, binding on a coated surface is turned into a signal by an enzyme label.

A further assay has as its target HRH2 (Homo sapiens, UniProt P25021). The experiment in a line: Safetyscan47 GPCR cAMP, Antagonist. In kind it is cell-based. Particulars: for Emax: read-out: Max Response.
The target in another assay is T3, CCKAR (Homo sapiens, UniProt P32238).
T3 sequence (P32238 1-428): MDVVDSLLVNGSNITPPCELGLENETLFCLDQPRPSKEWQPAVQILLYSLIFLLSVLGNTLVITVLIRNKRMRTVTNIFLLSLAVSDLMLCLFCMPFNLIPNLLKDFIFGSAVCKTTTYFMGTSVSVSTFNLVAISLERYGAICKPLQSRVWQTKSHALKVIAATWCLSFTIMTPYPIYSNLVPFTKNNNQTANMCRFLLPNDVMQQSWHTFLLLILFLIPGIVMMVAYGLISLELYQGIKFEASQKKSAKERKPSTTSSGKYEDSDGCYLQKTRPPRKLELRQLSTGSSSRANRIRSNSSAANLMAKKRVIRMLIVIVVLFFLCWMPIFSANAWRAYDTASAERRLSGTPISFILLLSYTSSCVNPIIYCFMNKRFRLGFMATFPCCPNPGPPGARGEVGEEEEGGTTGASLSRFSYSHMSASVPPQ
In words: Safetyscan47 GPCR Calcium Flux, Agonist. Format: cell-based. As to conditions: for Emax: read-out: Max Response. (Calcium assays in cells follow changes in intracellular calcium, usually with a dye or a luminescent sensor.)

In another assay the target is NMDAR (1A/2B) (Homo sapiens, UniProt Q05586+Q13224). In words: Safetyscan47 Ion Channel, Blocker. As to conditions: for Emax: read-out: Max Response. Format: cell-based.
Chain of NMDAR (1A/2B) (Q13224 27-1484, other chains not shown): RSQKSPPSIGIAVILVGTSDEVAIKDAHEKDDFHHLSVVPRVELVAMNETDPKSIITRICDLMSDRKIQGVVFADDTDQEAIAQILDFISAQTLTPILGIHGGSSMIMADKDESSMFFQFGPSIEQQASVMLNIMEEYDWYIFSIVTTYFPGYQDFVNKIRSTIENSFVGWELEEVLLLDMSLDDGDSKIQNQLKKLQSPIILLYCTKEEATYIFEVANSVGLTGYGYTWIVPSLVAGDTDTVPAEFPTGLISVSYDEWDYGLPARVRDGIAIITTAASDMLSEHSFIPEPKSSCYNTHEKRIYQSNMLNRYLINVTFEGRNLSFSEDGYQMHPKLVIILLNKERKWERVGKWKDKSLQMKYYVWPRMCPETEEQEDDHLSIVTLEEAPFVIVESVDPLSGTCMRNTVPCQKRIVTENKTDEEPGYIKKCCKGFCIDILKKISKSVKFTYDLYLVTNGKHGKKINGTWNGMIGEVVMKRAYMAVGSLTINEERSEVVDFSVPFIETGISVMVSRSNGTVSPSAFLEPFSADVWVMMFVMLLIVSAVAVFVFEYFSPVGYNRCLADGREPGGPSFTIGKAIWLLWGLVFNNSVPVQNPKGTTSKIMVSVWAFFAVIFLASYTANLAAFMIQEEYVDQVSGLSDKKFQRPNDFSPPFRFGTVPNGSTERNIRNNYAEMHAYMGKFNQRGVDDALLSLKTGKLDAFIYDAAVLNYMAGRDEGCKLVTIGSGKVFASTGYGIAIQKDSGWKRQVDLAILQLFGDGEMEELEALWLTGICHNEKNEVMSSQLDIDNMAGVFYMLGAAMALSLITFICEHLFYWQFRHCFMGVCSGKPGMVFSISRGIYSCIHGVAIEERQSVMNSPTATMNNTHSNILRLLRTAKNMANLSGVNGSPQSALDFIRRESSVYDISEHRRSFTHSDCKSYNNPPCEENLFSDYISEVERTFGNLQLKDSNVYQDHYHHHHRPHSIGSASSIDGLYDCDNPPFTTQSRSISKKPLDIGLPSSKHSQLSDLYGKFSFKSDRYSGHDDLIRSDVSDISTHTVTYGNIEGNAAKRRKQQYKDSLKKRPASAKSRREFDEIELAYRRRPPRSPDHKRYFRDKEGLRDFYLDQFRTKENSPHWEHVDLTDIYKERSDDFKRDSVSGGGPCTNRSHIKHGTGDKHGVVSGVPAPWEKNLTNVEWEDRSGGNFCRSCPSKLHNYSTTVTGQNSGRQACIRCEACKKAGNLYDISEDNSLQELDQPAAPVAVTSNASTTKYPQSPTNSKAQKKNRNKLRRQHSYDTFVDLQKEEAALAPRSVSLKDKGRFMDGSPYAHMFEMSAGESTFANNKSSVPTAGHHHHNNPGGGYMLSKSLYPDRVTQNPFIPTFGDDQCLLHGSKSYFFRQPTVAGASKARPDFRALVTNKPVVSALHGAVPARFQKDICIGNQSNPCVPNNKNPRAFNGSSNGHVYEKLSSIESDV

Chain of HRH2 (P25021 whole entry): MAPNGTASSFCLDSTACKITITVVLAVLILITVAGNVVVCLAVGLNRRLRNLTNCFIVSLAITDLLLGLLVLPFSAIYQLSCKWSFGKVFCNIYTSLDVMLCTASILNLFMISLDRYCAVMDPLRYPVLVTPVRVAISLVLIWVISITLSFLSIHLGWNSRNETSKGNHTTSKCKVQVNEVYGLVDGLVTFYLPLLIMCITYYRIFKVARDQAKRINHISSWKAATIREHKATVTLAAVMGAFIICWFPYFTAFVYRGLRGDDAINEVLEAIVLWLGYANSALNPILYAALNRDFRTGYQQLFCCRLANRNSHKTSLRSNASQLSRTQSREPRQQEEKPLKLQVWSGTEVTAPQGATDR

By EC50 is commonly meant the concentration at which the effect is half-maximal. One may read the IC50 as the concentration that inhibits the measured activity by half. Lower therefore signals higher potency. In the case of `CC[C@H](C)[C@H](NC(=O)[C@H](CC(C)C)NC(=O)[C@H](CC(=O)O)NC(=O)CNC(=O)[C@H](CCCNC(=N)N)NC(=O)[C@@H](NC(=O)[C@H](Cc1ccccc1)NC(=O)[C@H](Cc1ccc(O)cc1)NC(=O)[C@@H]1CCC(=O)NCC(=O)NCC(=O)N[C@@H](CCCNC(=N)N)C(=O)NCC(=O)N[C@@H](Cc2c[nH]cn2)C(=O)N[C@@H](C(C)C)C(=O)N2CCC[C@H]2C(=O)N1)C(C)C)C(=O)N[C@@H](CO)C(=O)N[C@@H](Cc1ccccc1)C(=O)N[C@@H](Cc1ccc(O)cc1)C(=O)N[C@@H](CCCCN)C(=O)O` [lassotide 36] (GGRGHVPEYFVRGDLISFYK-OH; lactam N-8), the EC50 on CHRM2 and at CCKAR was more than 45 µM each time. Also, the Emax at CHRM2 amounted to 7.71%; at DRD2S, 0%; at HRH2, 2.58%; at CCKAR, 4.58%; on NMDAR (1A/2B) it was 0%. Further, the IC50 on DRD2S is more than 45 µM; at integrin αIIbβ3 it was 0.332 µM; against HRH2, more than 45 µM; against NMDAR (1A/2B), more than 45 µM.
Consider `CC[C@H](C)[C@H](NC(=O)[C@H](CC(C)C)NC(=O)[C@H](CC(=O)O)NC(=O)CNC(=O)[C@H](CCCNC(=N)N)NC(=O)[C@@H](NC(=O)[C@H](Cc1ccccc1)NC(=O)[C@H](Cc1ccc(O)cc1)NC(=O)[C@@H]1CCC(=O)NCC(=O)NCC(=O)N[C@@H](CCCNC(=N)N)C(=O)NCC(=O)N[C@@H](Cc2c[nH]cn2)C(=O)N[C@@H](C(C)C)C(=O)N2CCC[C@H]2C(=O)N1)C(C)C)C(=O)N[C@@H](CO)C(=O)N[C@@H](Cc1ccccc1)C(=O)N[C@@H](Cc1ccc(O)cc1)C(=O)N[C@@H](CCCCNC(=O)CCOCCOCCNC(=O)CCCc1ccc(I)cc1)C(=O)O` [lassotide 47] (GGRGHVPEYFVRGDLISFYK([PEG2-Butanoyl(4-(4-I-phenyl))])-OH; lactam N-8), for which the half-maximal effective concentration (EC50) at CHRM2 and on CCKAR was more than 45 µM each time. The Emax at CHRM2 amounted to 32.7%; at DRD2S, 0%; at HRH2 it was 30%; on CCKAR it was 0%; on NMDAR (1A/2B) it was 0%. The IC50 against DRD2S is more than 45 µM; at integrin αIIbβ3 it was 1.49 µM; against HRH2, more than 45 µM; on NMDAR (1A/2B) it was more than 45 µM.
